The subject of data set [1] is polio vaccine virus Type I (PVI). The format is cell-based.
In another data set the test system is P388 mouse leukemia cell. Nature of the data set: in vitro P388 mouse leukemia cell assay. The format is cell-based. Conditions: 50% inhibition of cell replication vs untreated cultures. How it is done:
Antitumor effectiveness of the compounds of the invention was evaluated using a standardized in vitro P388 mouse leukemia cell assay protocol disclosed in U.S. Pat. No. 4,731,366 with the antitumor activity being expressed in IC50 (concentration that results in 50% inhibition of cell replication normalized to untreated cultures) determined with a log-log transform of data and expressed as xx ng/ml. As an example, for mycalamide A the P388 assay value was […]

Another data set deals with HSV. The format is cell-based, Herpes simplex type 1 virus.
A further data set deals with antimitotic activity. Conditions: British Pat. Nos. 1,078,049 and 932,875; cited from earlier work.

The structures appear in SMILES notation.

This is an account of results in patent publication US4868204A, “Mycalamide compounds, compositions thereof and methods of preparation and use” (Harbor Branch Oceanographic Institution, Inc., priority 1988, dated 1989).

On to `C=C1CC(OC)(C(O)C(=O)NC2OCOC3C2OC(CC(CO[Si](C)(C)C)O[Si](C)(C)C)C(C)(C)C3OC)OC(C)C1C` (stereo not shown) [Example 14, Mycalamide A 17,18-bis-trimethylsilylether], for which the “AV assay, PVI” value in data set [1] is reported as 4+. Moreover, the “P388 IC50” value with P388 mouse leukemia cell was determined as 1.2 ng/mL. Also, the “AV assay, HSV” value in the data set on HSV is 4+.
For `C=C1C[C@](OC)([C@H](O)C(=O)N[C@@H](OC)[C@@H]2C[C@@H](O)C(C)(C)[C@@H](C[C@@H](COC)OC)O2)O[C@H](C)[C@@H]1C` [Pederin, pederin], in the data set with antimitotic activity, the antimitotic activity entry is reported as “shows antimitotic activity”.
In the case of `C=C1CC(OC)(C(O)C(=O)NC2OCOC3C2OC(CC(CO[Si](C)(C)C)OC)C(C)(C)C3OC)OC(C)C1C` (stereo not shown) [Example 17, Mycalamide B 18-mono-trimethylsilylether], the “AV assay, PVI” value in data set [1] was 4+ and -. Further, the “P388 IC50” value in the data set on P388 mouse leukemia cell amounted to 0.08 ng/mL. In the data set on BSC cells, the “AV assay, cytotoxicity” value is on record as “-”. Further, the “AV assay, HSV” value with HSV is 4+ and -.
Consider `C=C1CC(OC)(C(O)C(=O)NC2OCOC3C2OC(CC(O)COC(=O)c2ccc(Br)cc2)C(C)(C)C3OC)OC(C)C1C` (stereo not shown) [Example 11, Mycalamide A 18-mono-p-bromobenzoate], for which the “AV assay, PVI” value in data set [1] is 4+ and -. Also, the “P388 IC50” value with P388 mouse leukemia cell is 1.28 ng/mL. For the same compound, the “AV assay, cytotoxicity” value with BSC cells is on record as “-”.
As for `C=C1CC(OC)(C(OC(=O)CC)C(=O)NC2OCOC3C2OC(CC(COC(=O)CC)OC(=O)CC)C(C)(C)C3OC)OC(C)C1C` (stereo not shown) [Example 8, Mycalamide A Tripropanoate], the “AV assay, PVI” value in data set [1] is 4+ and -. In addition, in the data set on P388 mouse leukemia cell, the “P388 IC50” value worked out at 85.6 ng/mL. In the data set with BSC cells, the “AV assay, cytotoxicity” value is given as “-”.
With `C=C1CC(O)(C(O)C(=O)NC2OCOC3C2OC(CC(O)CO)C(C)(C)C3OC)OC(C)C1C` (stereo not shown) [Example 28, Pseudomycalamide A], the “AV assay, PVI” value in data set [1] was 4+. For the same compound, in the data set on P388 mouse leukemia cell, the “P388 IC50” value was 23 ng/mL. In addition, in the data set with HSV, the “AV assay, HSV” value was 4+.
As to `COC1C2OCOC(NC(=O)C(OC(=O)c3ccc(Br)cc3)=C3C=C(C)C(C)C(C)O3)C2OC(CC(O)COC(=O)c2ccc(Br)cc2)C1(C)C` (single isomer, unassigned) [Example 13, Neomycalamide A 7,18-di-p-bromobenzoate], the “AV assay, PVI” value in data set [1] was 4+ and -. Further, the “P388 IC50” value in the data set with P388 mouse leukemia cell was determined as 572.5 ng/mL. Also, the “AV assay, cytotoxicity” value with BSC cells was “-”. The “AV assay, HSV” value in the data set with HSV is 4+ and -.
As to `COC(CO)CC1OC2C(NC(=O)C(O)C3(O)CC(C)C(C)C(C)O3)OCOC2C(OC)C1(C)C` (stereo not drawn) [Example 26, 4α Dihydro pseudomycalamide B], the “AV assay, PVI” value in data set [1] was 4+ and -. In the data set on P388 mouse leukemia cell, the “P388 IC50” value stood at 3 ng/mL. The “AV assay, cytotoxicity” value in the data set with BSC cells is reported as “-”. In addition, in the data set on HSV, the “AV assay, HSV” value is 4+ and -.
Regarding `C=C1C[C@](OC)([C@H](O)C(=O)N[C@H]2OCO[C@H]3[C@@H]2O[C@H](C[C@@H](CO)OC)C(C)(C)[C@@H]3OC)O[C@H](C)[C@@H]1C` [Example 2, Mycalamide B], in data set [1], the “AV assay, PVI” value is 4+ and -. Besides, the “P388 IC50” value in the data set on P388 mouse leukemia cell turned out to be 0.26 ng/mL. Further, in the data set with BSC cells, the “AV assay, cytotoxicity” value is “-”. The “AV assay, HSV” value with HSV is 4+ and -.
In the case of `C=C1CC(OC)(C(OC(C)=O)C(=O)NC2OCOC3C2OC(CC(COC(C)=O)OC(C)=O)C(C)(C)C3OC)OC(C)C1C` (stereo not shown) [Example 7, Mycalamide A Triacetate], the “P388 IC50” value with P388 mouse leukemia cell stood at 51.9 ng/mL. Also, the “AV assay, cytotoxicity” value with BSC cells is recorded as “-”.
With `COC1C2OCOC(NC(=O)C(O)C3(OC)CC4(CO4)C(C)C(C)O3)C2OC(CC(O)CO)C1(C)C` (stereo not shown) [Example 3, Mycalamide A 4 γ-epoxide], the “P388 IC50” value in the data set with P388 mouse leukemia cell is 34 ng/mL.
As to `COC1C2OCOC(NC(=O)C(O)C3(O)CC(C)C(C)C(C)O3)C2OC(CC(O)CO)C1(C)C` (stereo not drawn) [Example 20, 4α-dihydro pseudomycalamide A], the “P388 IC50” value in the data set with P388 mouse leukemia cell stood at 10.5 ng/mL. Further, the “AV assay, HSV” value in the data set with HSV is recorded as 4+.
For the compound `C=C1CC(OC)(C(O[Si](C)(C)C)C(=O)NC2OCOC3C2OC(CC(CO[Si](C)(C)C)O[Si](C)(C)C)C(C)(C)C3OC)OC(C)C1C` (stereo not shown) [Example 15, Mycalamide A tris-trimethylsilylether], the “AV assay, PVI” value in data set [1] was 4+ and -. For the same compound, in the data set on P388 mouse leukemia cell, the “P388 IC50” value came out at 1.3 ng/mL. In addition, in the data set with BSC cells, the “AV assay, cytotoxicity” value is listed as “-”. For the same compound, in the data set with HSV, the “AV assay, HSV” value was 4+ and -.
As for `COC1C2OCOC(NC(=O)C(O)C3(OC)CC(C)C(C)C(C)O3)C2OC(CC(O)CO)C1(C)C` (stereo not drawn) [Example 22, 4β-dihydro mycalamide A], the “P388 IC50” value in the data set with P388 mouse leukemia cell was 0.8 ng·mL. The “AV assay, cytotoxicity” value in the data set with BSC cells is “-”.
In the case of `C=C1CC(OC)(C(OC(C)=O)C(=O)NC2OCOC3C2OC(CC(COC(C)=O)OC)C(C)(C)C3OC)OC(C)C1C` (stereo not shown) [Example 9, Mycalamide B Diacetate], in data set [1], the “AV assay, PVI” value was 4+ and -. Besides, the “P388 IC50” value in the data set on P388 mouse leukemia cell was 15.3 ng/mL. Further, in the data set on BSC cells, the “AV assay, cytotoxicity” value is on record as “-”. In the data set with HSV, the “AV assay, HSV” value was 4+ and -.
Regarding `C=C1CC(O)(C(O)C(=O)NC2OCOC3C2OC(CC(CO)OC)C(C)(C)C3OC)OC(C)C1C` (stereo not shown) [Example 27, Pseudomycalamide B], in data set [1], the “AV assay, PVI” value was 4+ and -. Moreover, the “P388 IC50” value in the data set with P388 mouse leukemia cell was determined as 1.8 ng/mL. Further, the “AV assay, cytotoxicity” value with BSC cells was “-”. Further, the “AV assay, HSV” value in the data set on HSV was 4+ and -.
Regarding `C=C1CC(OC)(C(OC(=O)c2ccc(Br)cc2)C(=O)NC2OCOC3C2OC(CC(O)CO)C(C)(C)C3OC)OC(C)C1C` (stereo not shown) [Example 10, Mycalamide A 7-mono-p-bromobenzoate], in data set [1], the “AV assay, PVI” value was 4+. Further, in the data set with P388 mouse leukemia cell, the “P388 IC50” value came to 23.3 ng/mL. For the same compound, in the data set with HSV, the “AV assay, HSV” value is on record as 4+.
As for `COC1C2OCOC(NC(=O)C(O)C3(OC)CC(C)C(C)C(C)O3)C2OC(CC(O)CO)C1(C)C` (stereo not drawn) [Example 19, 4α-Dihydro mycalamide A], the “P388 IC50” value in the data set on P388 mouse leukemia cell turned out to be 2.3 ng/mL. In addition, the “AV assay, HSV” value in the data set on HSV was 4+ and -.
Turning to `COC1C2OCOC(NC(=O)C(O)C3(OC)CC4(CO4)C(C)C(C)O3)C2OC(CC(O)CO)C1(C)C` (stereo not drawn) [Example 4, Mycalamide A 4β-epoxide], the “P388 IC50” value with P388 mouse leukemia cell amounted to 14.9 ng/mL. Moreover, the “AV assay, HSV” value in the data set with HSV is listed as 4+.
Consider `C=C1CC(OC)(C(O)C(=O)NC2OCOC3C2OC(CC(O)CO[Si](C)(C)C(C)(C)C)C(C)(C)C3OC)OC(C)C1C` (stereo not shown) [Example 16, Mycalamide A 18-mono-t-butyl,dimethylsilylether], for which the “AV assay, PVI” value in data set [1] was 4+ and -. Besides, the “P388 IC50” value with P388 mouse leukemia cell amounted to 28.5 ng/mL. In addition, the “AV assay, cytotoxicity” value with BSC cells is on record as “-”. Besides, the “AV assay, HSV” value in the data set with HSV was 4+ and -.
`COC1C2OCOC(NC(=O)C(O)C3(O)CC(C)C(C)C(C)O3)C2OC(CC(O)CO)C1(C)C` (stereo not drawn) [Example 23, 4β-dihydro pseudomycalamide A]: the “AV assay, PVI” value in data set [1] was 4+. The “P388 IC50” value in the data set on P388 mouse leukemia cell was found to be 4.2 ng/mL. Further, the “AV assay, HSV” value in the data set with HSV is recorded as 4+.
With `C=C1CC(OC)(C(OC(=O)c2ccc(Br)cc2)C(=O)NC2OCOC3C2OC(CC(O)COC(=O)c2ccc(Br)cc2)C(C)(C)C3OC)OC(C)C1C` (stereo not shown) [Example 12, Mycalamide A 7,18-di-p-bromobenzoate], the “AV assay, PVI” value in data set [1] is on record as 4+. Further, the “P388 IC50” value in the data set on P388 mouse leukemia cell was 141.2 ng/mL.
As for `C=C1CC(OC)(C(O[Si](C)(C)C)C(=O)NC2OCOC3C2OC(CC(CO[Si](C)(C)C)OC)C(C)(C)C3OC)OC(C)C1C` (stereo not shown) [Example 18, Mycalamide B bis-trimethylsilylether], the “P388 IC50” value in the data set with P388 mouse leukemia cell was 0.19 ng/mL.
With `COC(CO)CC1OC2C(NC(=O)C(O)C3(OC)CC(C)C(C)C(C)O3)OCOC2C(OC)C1(C)C` (stereo not drawn) [Example 24, 4β-Dihydro mycalamide B], in data set [1], the “AV assay, PVI” value is on record as 4+. Further, the “P388 IC50” value with P388 mouse leukemia cell was 0.14 ng/mL.
